The source of these data is patent publication US20110150917A1, “Small Cationic Antimicrobial Peptides” (THE UNIVERSITY OF BRITISH COLUMBIA, priority 2007, published 2011).

Entries after “also recorded” stand apart in the source; their conditions may differ. Where no end group is shown, it is not given here.

One assay has as its system monocytic cells. The note with it: cited from earlier work.
The conditions of assay [1]: mouse model; cited from earlier work.
The next assay relates to bacterial infections. The conditions noted are these: mouse, in vivo; cited from earlier work.
The subject of assay [2] is human peripheral blood mononuclear cells (PBMC). The experiment in a line: Chemokine induction in human PBMC (capture ELISA). The conditions noted are these: for ability to stimulate human PBMC to induce the expression of the chemokines MCP-1, Gro-α and IL8: ELISA 24 hours after peptide addition, compared to LL-37, lowest peptide concentration 5 μg/ml. The format is cell-based. How it is done:
(§1) Venous blood (20 ml) from healthy volunteers was collected in Vacutainer® collection tubes containing sodium heparin as an anticoagulant (Becton Dickinson, Mississauga, ON) in accordance with UBC ethical approval and guidelines. Blood was diluted 1:1 with complete RPMI 1640 medium and separated by centrifugation over a Ficoll-Paque® Plus (Amersham Biosciences, Piscataway, N.J., USA) density gradient. White blood cells were isolated from the buffy coat, washed twice in RPMI 1640 complete medium, and the number of peripheral blood mononuclear cells (PBMC) was determined by trypan blue exclusion. PBMC (5×10^5) were seeded into 12-well tissue culture dishes (Falcon; Becton Dickinson) at 0.75 to 1×10^6 cells/ml at 37° C. in 5% CO2. The above conditions were chosen to mimic conditions for circulating blood monocytes entering tissues at the site of infection via extravasation.
(§2) Following incubation of the cells under various treatment regimens, the tissue culture supernatants were centrifuged at 1000×g for 5 min, then at 10,000×g for 2 min to obtain cell-free samples. Supernatants were aliquoted and then stored at −20° C. prior to assay for various chemokines by capture ELISA (eBioscience and BioSource International Inc., CA, USA respectively).

For the next assay, the system named is human PBMC. The experiment in a line: Chemokine responses of human PBMC to CpG oligonucleotides with co-administered lantibiotic peptides. The note with it: for synergy with known adjuvants like CpG: FIG. 3, FIG. 8. The format is cell-based. The method, then: FIG. 3A-C. Reinforcement of chemokine responses in human PBMC to the bacterial signature molecules, Cpg oligonucleotides, by co-administration of lantibiotic peptides. On the X-axis of this and subsequent Figures, N=Nisin Z, P=Pep5, G=gallidermin.
as §1, §2

Another assay has as its system macrophages. The note with it: previously shown in applicant's laboratory; cited from earlier work.
A further assay deals with S. aureus. The experiment in a line: Protection of mice vs. Staphylococcus aureus challenge (peritoneal). In kind it is in vivo. How it is done: FIG. 9. Protection of animals vs. Staphylococcus aureus challenge when administered 4 hours prior to initiating the infection. A represents the reduction in colony counts within the peritoneum of mice treated with lantibiotic peptide (or negative control 1005 or positive control 1002) and challenged with ˜10^8 S. aureus in hog gastric mucin. […] An additional peptide 1002 was included as a positive control.
Conventional peptides are known to protect against infection (Scott et al. Nature Biotech 2007). However such peptides are very expensive whereas lantibiotics are bacterial fermentation products and thus inexpensive. Thus we assessed the reduction in colony counts after 24 hours within the peritoneum of mice treated with the lantibiotic peptide nisin (or negative control 1005 or positive control 1002) and challenged these mice 4 hours later with ˜10^8 S. aureus in hog gastric mucin. […] Thus the in vitro activities of nisin in increasing MCP-1 production in PBMC is clearly related to in vivo protection in animal models.

A further assay deals with Citrobacter rodentium. The experiment in a line: Citrobacter rodentium challenge in mice (live imaging, intestinal histology). In kind it is in vivo. The method, then: FIG. 10. Live-time Non-invasive imaging following Citrobacter rodentium challenge; effect of nisin treatment. Animals were pre-treated intraperitoneally with 200 μg nisin, 4 h prior to initiating the infection. Mice were then infected via gavage with 2.5×10^8 CFU of Citrobacter rodentium (lux—luminescence labeled). Live mice were followed with a CCD camera over time to assess bacterial clearance/resolution of infection.
FIG. 11. Histology of the intestines of Citrobacter treated animals after sacrifice at day 11; effect of nisin treatment. A. Sections of (from right to left): normal uninfected, saline treated infected, and nisin-treated intestines. Letter labels are a. Inflammatory infiltrate and edema; b. elongated crypts (hyperplasia); c. sloughing of damaged epithelial cells (mucosal integrity); d. depletion of mucous in goblet cells. B. Scoring of these micrographs.

The mark [3] stands for this setting: intestines, sacrifice at day 11, p<0.05, FIG. 11.

With “LL-37: natural human host defence peptide (LLGDFFRKSKEKIGKEFKRIVQRIKDFLRNLVPRTES; Antibacterial peptide LL-37; UniProt P49913 134-170, looked up)”, in the assay on monocytic cells, the “anti-endotoxic activity in vitro (suppression of LPS-mediated induction of TNFα)” value was “excellent anti-endotoxic activity”. Moreover, the “endotoxin mediated TNFα induction and lethality” value in assay [1] is “reduce endotoxin mediated TNFα induction and lethality”. Moreover, the “protection against bacterial infections” value in the assay on bacterial infections is reported as “able to protect against bacterial infections”.

Consider “Nisin A: lantibiotic, a variant of Nisin Z (ITSISLCTPGCKTGALMGCNMKTATCHCSIHVSK; thioether (positions not given here); also: lantibiotic; UniProt P13068 24-57, looked up)”, for which the “ability to induce MCP-1” value in assay [2] (24 hours, 100 μg of peptide, ELISA, FIG. 7) is given as “excellent activity”.

On to “Nisin Z: cationic lantibiotic bacteriocin purified from L. lactis NIZO 22186 fermentation broth (ITSISLCTPGCKTGALMGCNMKTATCNCSIHVSK; thioether (positions not given here); also: lantibiotic; UniProt P29559 24-57, looked up)”, for which the “ability to stimulate human PBMC to induce the expression of the chemokines MCP-1, Gro-α and IL8” value (“ability to stimulate human PBMC” for short) in assay [2] (FIG. 2A-C) was “most effective; also recorded: ability to induce chemokines”. Further, in assay [2] (between 30 and 150 μg/ml, FIG. 2A-C), the “dose response of chemokine induction” value was “good dose response”. In addition, the “synergy with known adjuvants like CpG” value with human PBMC is given as “show synergy”. Besides, in the assay on human PBMC (p<0.05), the “MCP-3 release above the additive effect of CpG alone and lantibiotic alone” value was “statistically significantly (p<0.05) increased”. Moreover, in the assay on human PBMC (vs three classes of CpG), the “inducing MCP-1 and IL6, compared with CpG” value was “superior to any of the three classes of CpG”.

Consider “Pep5: cationic lantibiotic purified from producer strain S. epidermidis 25 (TAGPAIRASVKQCQKTLKATRLFTVSCKGKNGCK; thioether (positions not given here); also: lantibiotic; UniProt P19578 27-60, looked up)”, for which the “ability to stimulate human PBMC” value in assay [2] (FIG. 2A-C) is “ability to induce chemokines”. For the same substance, the “synergy with known adjuvants like CpG” value in the assay on human PBMC was “show synergy”.

On to “gallidermin: cationic lantibiotic purified from Staphylococcus gallinarum Tü 3928 (IASKFLCTPGCAKTGSFNSYCC; thioether (positions not given here); also: lantibiotic; UniProt P21838 31-52, looked up)”, for which the “ability to stimulate human PBMC” value in assay [2] (FIG. 2A-C) is “quite effective; also recorded: ability to induce chemokines”. The “synergy with known adjuvants like CpG” value in the assay with human PBMC is on record as “show synergy”.

As to “indolicidin: 13-mer peptide (ILPWKWPWWPWRR; ends and bridges not checked; UniProt P33046 131-143, looked up)”, the “anti-endotoxic activity (suppression of LPS-stimulated TNFα by macrophages)” value in the assay with macrophages is listed as “rather modest anti-endotoxic activity”.

Take nisin: the “synergy in inducing MCP-1 over and above the individual components” value in the assay with human PBMC (adjuvant formulations, ratios 2:1, 1:1 and 1:2 nisin to CpG, FIG. 8) is given as “demonstrated synergy”. Moreover, the “colony counts within the peritoneum” value in the assay on S. aureus (after 24 hours, peptide 4 hours before ~10^8 S. aureus in hog gastric mucin, FIG. 9A) was “reducing average colony counts”. Besides, in the assay with S. aureus (cf. control peptides 1002 and 1005, FIG. 9B), the “visual observation scores (physiological consequences)” value is reported as “vastly improved”. Besides, the “infection in the gut / bacterial clearance” value with Citrobacter rodentium (200 μg nisin intraperitoneally 4 h before gavage with 2.5×10^8 CFU, CCD imaging, FIG. 10) is listed as “substantial decrease in infection in the gut; also recorded: superior clearance”. The “duration of the decrease in infection / superior clearance” value in the assay with Citrobacter rodentium (after injection of nisin, FIG. 10) is listed as “up to 11 days”. Further, in the assay with Citrobacter rodentium (setting [3]), the “damage to epithelial integrity (histology score)” value is recorded as “decrease”; the “goblet cell depletion (histology score)” value is on record as “decrease”; the “inflammatory exudate and edema (histology score)” value is “significant (p<0.05) increase”.
